From ChEMBL document CHEMBL1130460, “ADA-Bypass by lipophilic cycloSal-ddAMP pro-nucleotides A second example of the efficiency of the cycloSal-Concept” (Bioorg Med Chem Lett, 1997) come the findings set out here.

pEC50: −log10 of the molar value.

Data set [1] is described as follows: Partition coefficient was measured in 1-octanol/phosphate buffer (pH 6.8). The class given is physicochemical.
The test system of data set [2] is CCRF-CEM. Put plainly: Effective concentration of compound against HIV-2 infected CEM/O cells. As to conditions: Homo sapiens. The format is functional, cell-based.
For data set [3], the system named is CCRF-CEM. Put plainly: Cytotoxic activity was evaluated against CEM/O cells. As to conditions: Homo sapiens. The class given is functional.
The nature of data set [4]: Hydrolysis half-life (t1/2) in phosphate buffer at pH 7.3. The class given is ADME.
For data set [5], the system named is CCRF-CEM. Put plainly: Effective concentration of compound against HIV-1 infected CEM/O cells. The class given is functional, cell-based. The conditions noted are these: Homo sapiens.
For data set [6], the system named is CCRF-CEM. Put plainly: Cytotoxic activity was evaluated against CEM/O cells; No activity up to > 250 uM. The class given is functional, cell-based, Homo sapiens.
For data set [7], the system named is CCRF-CEM. Put plainly: Effective concentration of compound against HIV-2 infected CEM/O cells; No activity up to > 250 uM. The class given is functional, cell-based, Homo sapiens.
Data set [8] deals with CCRF-CEM. Put plainly: Effective concentration of compound against HIV-1 infected CEM/O cells; No activity up to > 250 uM. The class given is functional, cell-based, Homo sapiens.

Broadly, the logD is lipophilicity at a set pH, counting ionised and neutral species. The low end stands for a more hydrophilic compound, the high end for a more lipophilic compound. For orientation: pEC50 means the negative decadic logarithm of the EC50, by convention in mol/L. A low value points to a large EC50. As a reminder, the CC50 is the concentration giving 50% cytotoxicity. A high value points to better tolerance by the cells. By half-life is commonly meant the time needed for the level to fall by half in the phase considered. Lower therefore signals rapid decline. In turn, `Cc1cccc2c1OP(=O)(OCC1CCC(n3cnc4c(N)ncnc43)O1)OC2` (stereo not drawn) gave a logD in data set [1] of 0.91. The pEC50 with CCRF-CEM [2] is 7.46; with CCRF-CEM [5] it was 7.52. This molecule also came in with a half-maximal cytotoxic concentration (CC50) in the data set with CCRF-CEM [3] of 9.54 µM. The same molecule gave a half-life in data set [4] of 35.1 h.
For `COc1ccc(CO)c(O)c1`, the EC50 entry in the data set on CCRF-CEM [6], in the data set with CCRF-CEM [7] and in the data set on CCRF-CEM [8] was “Not Active” throughout.
`COc1ccc2c(c1)COP(=O)(OCC1CCC(n3cnc4c(N)ncnc43)O1)O2` (stereo not drawn) returned a logD in data set [1] of 0.61. Also, the pEC50 in the data set on CCRF-CEM [2] is 7.05; with CCRF-CEM [5] it was 7.19. The molecule also returned a CC50 in the data set on CCRF-CEM [3] of 30.4 µM. For the same molecule, the half-life in data set [4] was 14 h.
As for `OCc1ccccc1O` [SALICYL ALCOHOL], the EC50 entry in the data set with CCRF-CEM [6], with CCRF-CEM [7] and in the data set on CCRF-CEM [8] was “Not Active” in each case.
Turning to `Nc1ncnc2c1ncn2[C@H]1CC[C@@H](CO)O1`, the logD in data set [1] was -0.28. Further, the results for the pEC50 in the data set on CCRF-CEM [2] and with CCRF-CEM [5] were 5.27 and 5.44, respectively. Besides, the CC50 in the data set on CCRF-CEM [3] was found to be 200 µM.
Regarding `Cc1cccc(O)c1CO`, the EC50 result in the data set on CCRF-CEM [6], with CCRF-CEM [7] and in the data set on CCRF-CEM [8] was “Not Active” throughout.
On to `Nc1ncnc2c1ncn2C1CCC(COP2(=O)OCc3ccccc3O2)O1` (stereo not drawn), for which the logD in data set [1] was 0.54. The pEC50 with CCRF-CEM [2] is 6.96; with CCRF-CEM [5], 6.92. This molecule yielded a CC50 with CCRF-CEM [3] of 21.9 µM. The molecule also had a half-life in data set [4] of 8.2 h.
